In US20170246230A1, “PHARMACEUTICAL COMPOSITION FOR TREATING INFERTILITY, AND PREPARATION METHOD AND USE THEREOF” (priority 2014, published 2017):

Experiments:
Assay type in all cases: in vivo, Kunming mice
[1] = system: mice with sterility induced by androgens; test: Quantities of follicles, oocytes and interstitial gland composition in ovary slices of androgen-sterile mice; settings: 18 mg/kg intragastric, 4 weeks, TP-modelled mice
Procedure: (§1) 120 Kunming female mice (20 days old) were randomly divided into 6 groups according to their weights and there were 20 in each group. 20 mice in the normal control group were subcutaneously injected with saline and the remaining 100 mice were used in modeling and subcutaneously injected with TP (testosterone propionate). The modeling method is described like this, 100 mice were subcutaneously injected with 0.06 mL TP (testosterone propionate), 4 d/time, continuous injection for 2 weeks and drug withdrawal for 1 weeks. Those mice after modelling were randomly divided into […], i.e. model control group, Clomifenecitrate capsules group and HDG (high-dose group), MDG (medium-dose group) and LDG (low-dose group) of the drug combination in the present invention.
(§2) After 4 weeks of administration, the drug was suspended for 48 h, 10 mice were executed in each group and the remaining 10 mice were left to carry out the conception rate test.
Mice were executed and their ovaries and uterus were removed. Ovaries were fixed with […] and tissue slices were observed under the ordinary optical microscope after the process of HE tinction and oil red 0 tinction. Uterus were fixed with 100 g/L formaldehyde and tissue slices were imbedded with paraffin and undergone the process of 4 μm slicing and ER marking. Light microscopy was used for observation after the hematoxylin counter staining.

[2] = system: mice with sterility induced by androgens; test: Estradiol (E2) content in sera of mice with sterility induced by androgens (ELISA); settings: 18 mg/kg intragastric, 4 weeks, TP-modelled female mice, serum
Procedure: Blank control group: Intragastrically administrated with distilled water on daily basis at a dose of 2 ml/d;
Model control group: Intragastrically administrated with distilled water on daily basis and at a dose of 2 ml/d;
Irrigation was stopped for 48 h, orbital blood of mice was collected, serum was separated and enzyme linked immunosorbent assay was used to detect E2.

[3] = system: mice with sterility induced by androgens; test: Conception conditions of mated female mice after the medication; settings: 18 mg/kg, 4 weeks, 10 d after mating
Procedure: as §1, §2
To put 10 mice from each cage into the cage where 4 normally-matured male mice. 10 d after the mating, uterus of female mice were dissected to observe the conception conditions.

Question: `CCN(CC)CCOc1ccc(C(=C(Cl)c2ccccc2)c2ccccc2)cc1` [Clomifenecitrate capsules, Clomifenecitrate] was tested. Which Interstitial gland composition [1] did it give?
Answer: 24.96 ± 5.00

Question: What about the Quantity of follicles [1] of the same molecule?
Answer: 37.6 ± 6.4 piece

Question: And the Quantity of oocytes [1]?
Answer: 8.7 ± 2.2 piece

Question: And the E2 [2]?
Answer: 12.76 ± 4.98 µg/L

Question: And the Number of conception ([3]; 10 female mice)?
Answer: 6 mice

Question: And the Rate of conception [3]?
Answer: 60.0%
